# Reference: PubChem BioAssay AID1845219 (Molecular Pharmacology Branch, DTP, NCI, 2023)
# Tested on: SYO-1 tumor spheroids, viability % test/control
# Experiment: Anticancer human tumor SYO-1 cell line growth inhibition;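 also: spheroids exposed to agents for 7 days before viability read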;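 as to viability, T/C: 100% = DMSO vehicle control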
# Conditions: spheroids with HUVEC and MSC; for IC50: curve of first compound; for viability, T/C: stronger effect = lower value
# In short: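 Complex spheroids of malignant cells with endothelial cells and mesenchymal stem cells; agents alone or combined, from near clinical Cmax (or 10 microM if unknown) down in half-log steps, 0.25% DMSO final.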
# [1] = second compound 1 µM, first compound 0.0316 µM
# [2] = second compound 1 µM, first compound 0.1 µM
# [3] = second compound 1 µM, first compound 0.316 µM
# [4] = second compound 1 µM, first compound 1 µM
# [5] = second compound 1 µM, first compound 3.16 µM
# [6] = second compound 1 µM, first compound 10 µM
# [7] = second compound 3.16 µM, first compound 0.0316 µM
# [8] = second compound 3.16 µM, first compound 0.1 µM
# [9] = second compound 3.16 µM, first compound 0.316 µM
# [10] = second compound 3.16 µM, first compound 1 µM
# [11] = second compound 3.16 µM, first compound 3.16 µM
# [12] = second compound 3.16 µM, first compound 10 µM
# [13] = second compound 10 µM, first compound 0.0316 µM
# [14] = second compound 10 µM, first compound 0.1 µM
# [15] = second compound 10 µM, first compound 0.316 µM
# [16] = second compound 10 µM, first compound 1 µM
# [17] = second compound 10 µM, first compound 3.16 µM
# [18] = second compound 10 µM, first compound 10 µM
# [19] = second compound 31.6 µM, first compound 0.0316 µM
# [20] = second compound 31.6 µM, first compound 0.1 µM
# [21] = second compound 31.6 µM, first compound 0.316 µM
# [22] = second compound 31.6 µM, first compound 1 µM
# [23] = second compound 31.6 µM, first compound 3.16 µM
# [24] = second compound 31.6 µM, first compound 10 µM
# [25] = second compound 100 µM, first compound 0.0316 µM
# [26] = second compound 100 µM, first compound 0.1 µM
# [27] = second compound 100 µM, first compound 0.316 µM
# [28] = second compound 100 µM, first compound 1 µM
# [29] = second compound 100 µM, first compound 3.16 µM
# [30] = second compound 100 µM, first compound 10 µM
structure (smiles),measurement,setting,value
[2H]c1nc(C)nc([2H])c1-c1cc(NC[C@@H](C)c2cccc3c(C(=O)NC)ccnc23)ncn1 + CC[C@@]1(O)C(=O)OCc2c1cc1n(c2=O)Cc2cc3c(CN(C)C)c(O)ccc3nc2-1,IC50,second compound 0.003 µM,> 10000 nM
same,IC50,second compound 0.00949 µM,< 31.6 nM
same,IC50,second compound 0.03 µM,< 31.6 nM
same,IC50,second compound 0.0949 µM,< 31.6 nM
same,IC50,second compound 0.3 µM,< 31.6 nM
same,"viability, T/C","second compound 0.003 µM, first compound 0.0316 µM",92.5%
same,"viability, T/C","second compound 0.003 µM, first compound 0.1 µM",99.4%
same,"viability, T/C","second compound 0.003 µM, first compound 0.316 µM",94.6%
same,"viability, T/C","second compound 0.003 µM, first compound 1 µM",93%
same,"viability, T/C","second compound 0.003 µM, first compound 3.16 µM",92.3%
same,"viability, T/C","second compound 0.003 µM, first compound 10 µM",93.7%
same,"viability, T/C","second compound 0.00949 µM, first compound 0.0316 µM",25.9%
same,"viability, T/C","second compound 0.00949 µM, first compound 0.1 µM",31.1%
same,"viability, T/C","second compound 0.00949 µM, first compound 0.316 µM",28.9%
same,"viability, T/C","second compound 0.00949 µM, first compound 1 µM",20%
same,"viability, T/C","second compound 0.00949 µM, first compound 3.16 µM",19.2%
same,"viability, T/C","second compound 0.00949 µM, first compound 10 µM",17.2%
same,"viability, T/C","second compound 0.03 µM, first compound 0.0316 µM",1.86%
same,"viability, T/C","second compound 0.03 µM, first compound 0.1 µM",2.19%
same,"viability, T/C","second compound 0.03 µM, first compound 0.316 µM",1.77%
same,"viability, T/C","second compound 0.03 µM, first compound 1 µM",2.01%
same,"viability, T/C","second compound 0.03 µM, first compound 3.16 µM",1.73%
same,"viability, T/C","second compound 0.03 µM, first compound 10 µM",1.75%
same,"viability, T/C","second compound 0.0949 µM, first compound 0.0316 µM",1.57%
same,"viability, T/C","second compound 0.0949 µM, first compound 0.1 µM",1.61%
same,"viability, T/C","second compound 0.0949 µM, first compound 0.316 µM",1.6%
same,"viability, T/C","second compound 0.0949 µM, first compound 1 µM",1.39%
same,"viability, T/C","second compound 0.0949 µM, first compound 3.16 µM",1.9%
same,"viability, T/C","second compound 0.0949 µM, first compound 10 µM",1.55%
same,"viability, T/C","second compound 0.3 µM, first compound 0.0316 µM",1.71%
same,"viability, T/C","second compound 0.3 µM, first compound 0.1 µM",1.76%
same,"viability, T/C","second compound 0.3 µM, first compound 0.316 µM",2.05%
same,"viability, T/C","second compound 0.3 µM, first compound 1 µM",1.52%
same,"viability, T/C","second compound 0.3 µM, first compound 3.16 µM",1.73%
same,"viability, T/C","second compound 0.3 µM, first compound 10 µM",2.12%
CC1COCCN1c1cc(-c2ccnn2C)c2ccnc(-c3ccn[nH]3)c2n1 (stereo not given) + Cn1nnc2c(C(N)=O)ncn2c1=O,IC50,second compound 1 µM,< 31.6 nM
same,IC50,second compound 3.16 µM,< 31.6 nM
same,IC50,second compound 10 µM,< 31.6 nM
same,IC50,second compound 31.6 µM,< 31.6 nM
same,IC50,second compound 100 µM,< 31.6 nM
same,"viability, T/C",[1],41.1%
same,"viability, T/C",[2],5.35%
same,"viability, T/C",[3],2.75%
same,"viability, T/C",[4],1.62%
same,"viability, T/C",[5],0.73%
same,"viability, T/C",[6],0.7%
same,"viability, T/C",[7],38.4%
same,"viability, T/C",[8],4.75%
same,"viability, T/C",[9],3.22%
same,"viability, T/C",[10],1.73%
same,"viability, T/C",[11],7.91%
same,"viability, T/C",[12],20%
same,"viability, T/C",[13],20.3%
same,"viability, T/C",[14],3.73%
same,"viability, T/C",[15],2.69%
same,"viability, T/C",[16],1.48%
same,"viability, T/C",[17],5.25%
same,"viability, T/C",[18],21.1%
same,"viability, T/C",[19],11.1%
same,"viability, T/C",[20],10.2%
same,"viability, T/C",[21],2.45%
same,"viability, T/C",[22],1.18%
same,"viability, T/C",[23],7.18%
same,"viability, T/C",[24],6.71%
same,"viability, T/C",[25],2.97%
same,"viability, T/C",[26],2.88%
same,"viability, T/C",[27],1.91%
same,"viability, T/C",[28],1.24%
same,"viability, T/C",[29],0.77%
same,"viability, T/C",[30],0.75%
Cc1cc(C)c(CNC(=O)c2cc(-c3ccc(CN4CCOCC4)cc3)cc3c2cnn3C2CCCC2)c(=O)[nH]1 + Cn1nnc2c(C(N)=O)ncn2c1=O,IC50,second compound 1 µM,> 10000 nM
same,IC50,second compound 3.16 µM,> 10000 nM
same,IC50,second compound 10 µM,> 10000 nM
same,IC50,second compound 31.6 µM,> 10000 nM
same,IC50,second compound 100 µM,7990 nM
same,"viability, T/C",[1],106%
same,"viability, T/C",[2],105%
same,"viability, T/C",[3],110%
same,"viability, T/C",[4],104%
same,"viability, T/C",[5],106%
same,"viability, T/C",[6],97%
same,"viability, T/C",[7],103%
same,"viability, T/C",[8],106%
same,"viability, T/C",[9],103%
same,"viability, T/C",[10],104%
same,"viability, T/C",[11],105%
same,"viability, T/C",[12],89.6%
same,"viability, T/C",[13],103%
same,"viability, T/C",[14],106%
same,"viability, T/C",[15],106%
same,"viability, T/C",[16],108%
same,"viability, T/C",[17],101%
same,"viability, T/C",[18],71.2%
same,"viability, T/C",[19],106%
same,"viability, T/C",[20],108%
same,"viability, T/C",[21],107%
same,"viability, T/C",[22],111%
same,"viability, T/C",[23],105%
same,"viability, T/C",[24],74.6%
same,"viability, T/C",[25],107%
same,"viability, T/C",[26],111%
same,"viability, T/C",[27],107%
same,"viability, T/C",[28],101%
same,"viability, T/C",[29],76.1%
same,"viability, T/C",[30],43.7%
